This note sets out measurements from PubChem BioAssay (NCI).

Test systems include HT29 colon; SK-OV-3 ovarian; TK-10 renal; SF-539 CNS; SK-MEL-28 melanoma; IGROV1 ovarian; HOP-62 NSCLC; HL-60(TB) leukemia; HCT-15 colon; CAKI-1 renal.
Holding throughout (assay): NCI-60 cell line screen, 48 h

Several values for one entry are separate records, joined by “and”; a condition that tells them apart may be missing. Equal values may be shown once.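 In this assay, cells in 96-well plates receive the compound at five concentrations for 48 hours. Endpoints are linearly interpolated between the surrounding concentrations. GI50 is the concentration that inhibits growth by half. Definition used: TGI = concentration required for complete inhibition of growth.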

As for `O=C(Nc1cccc(C(F)(F)F)c1)Nc1cc(S(=O)(=O)NC2CC2)ccc1-c1ccsc1`, the GI50 is 4.25 µM with HT29 colon; 4.39 µM with SK-OV-3 ovarian; 4.65 µM in the assay on TK-10 renal; 4.22 µM in the assay with SF-539 CNS; 5.1 µM in the assay with SK-MEL-28 melanoma; 7.18 µM in the assay on IGROV1 ovarian. Further, the GI50 in the assay on HOP-62 NSCLC is 5.11 µM; in the assay on HL-60(TB) leukemia it was 3.01 µM; in the assay on HCT-15 colon it was 3.27 µM; in the assay on CAKI-1 renal, 4.47 µM. Further, the TGI with HT29 colon was 16.1 µM; in the assay with SK-OV-3 ovarian, 17 µM; in the assay on TK-10 renal, 17.2 µM; in the assay on SF-539 CNS it was 16.4 µM; with SK-MEL-28 melanoma, 18.5 µM; in the assay on IGROV1 ovarian, 25.4 µM. The TGI was found to be 18.5 µM in the assay on HOP-62 NSCLC, 8.03 µM with HL-60(TB) leukemia, 12.8 µM in the assay with HCT-15 colon and 18.6 µM in the assay with CAKI-1 renal.
As for `Cc1ccc(S(=O)(=O)NCc2cccc([N+](=O)[O-])c2)cc1`, the TGI in the assay on HT29 colon, in the assay on SK-OV-3 ovarian, in the assay on TK-10 renal, in the assay on SF-539 CNS, with SK-MEL-28 melanoma and in the assay on IGROV1 ovarian was greater than 100 µM each time. For the same compound, the TGI in the assay on HOP-62 NSCLC was greater than 100 µM; in the assay with HL-60(TB) leukemia it was 90.3 µM; in the assay with HCT-15 colon, greater than 100 µM; in the assay on CAKI-1 renal, greater than 100 µM.
Turning to `Oc1ccc(/C=N/Nc2nnc(N/N=C/c3ccc(O)cc3O)c3ccccc23)c(O)c1`, the GI50 in the assay on HT29 colon is 1.76 µM; with SK-OV-3 ovarian, 0.552 µM; in the assay on TK-10 renal, 0.526 µM; with SK-MEL-28 melanoma, 0.552 µM; with IGROV1 ovarian it was 0.493 µM; with HOP-62 NSCLC, 0.509 µM. Further, the results for the GI50 in the assay on HL-60(TB) leukemia, in the assay with HCT-15 colon and in the assay with CAKI-1 renal were 0.376 µM, 0.332 µM and 0.334 µM, respectively. Also, the TGI with HT29 colon is 7.2 µM; in the assay with SK-OV-3 ovarian it was 4.5 µM; with TK-10 renal it was 9.18 µM; in the assay on SF-539 CNS, 0.714 µM and 0.755 µM; in the assay with SK-MEL-28 melanoma, 5.26 µM; with IGROV1 ovarian, 3.24 µM. Moreover, the TGI in the assay with HOP-62 NSCLC is 0.793 µM and 2.02 µM; in the assay with HL-60(TB) leukemia it was 0.598 µM and 4.81 µM; with CAKI-1 renal, 0.671 µM.
Take `Cc1nc(-c2cccnc2)sc1C(=O)/C=C/c1ccc(Cl)cc1Cl`: the TGI with HT29 colon, with SK-OV-3 ovarian, in the assay on TK-10 renal, in the assay with SF-539 CNS, with SK-MEL-28 melanoma and in the assay on IGROV1 ovarian was greater than 100 µM in each case. For the same compound, the TGI with HOP-62 NSCLC, with HL-60(TB) leukemia, in the assay with HCT-15 colon and in the assay on CAKI-1 renal was greater than 100 µM in each case.
For `COc1cc([C@H]2c3cc(O)c(OC)cc3C[C@]3(O)[C@@H]2CO[C@@H]3O)ccc1O`, the TGI in the assay with HT29 colon, in the assay on SK-OV-3 ovarian, in the assay on TK-10 renal, with SF-539 CNS, in the assay with SK-MEL-28 melanoma and in the assay with IGROV1 ovarian was greater than 100 µM throughout. Moreover, the TGI in the assay on HOP-62 NSCLC, in the assay on HL-60(TB) leukemia, with HCT-15 colon and with CAKI-1 renal was greater than 100 µM throughout.
With `NC(=O)NC(=O)C1CCC(=O)N1S(=O)(=O)c1ccc(Cl)cc1` (configuration not stated), the TGI with HT29 colon, in the assay with SK-OV-3 ovarian, with TK-10 renal, in the assay on SF-539 CNS, in the assay with SK-MEL-28 melanoma and with IGROV1 ovarian was greater than 100 µM throughout. For the same compound, the TGI in the assay on HOP-62 NSCLC, with HL-60(TB) leukemia, with HCT-15 colon and in the assay on CAKI-1 renal was greater than 100 µM throughout.
As for `CCOC(=O)NC/C=C/CO`, the TGI in the assay with SK-OV-3 ovarian, in the assay with TK-10 renal, with SF-539 CNS, with SK-MEL-28 melanoma, in the assay with IGROV1 ovarian and in the assay with HOP-62 NSCLC was greater than 100 µM throughout. Also, the TGI with HL-60(TB) leukemia, in the assay with HCT-15 colon and in the assay on CAKI-1 renal was greater than 100 µM throughout.
Take `COC(=O)C(NC(=O)c1ccccc1)c1ccc(OC)c(I)c1` (configuration not stated): the GI50 was 49 µM with HT29 colon; 78.2 µM in the assay with SK-OV-3 ovarian; 38.5 µM with TK-10 renal; greater than 100 µM with SF-539 CNS; 76.4 µM in the assay on SK-MEL-28 melanoma; 53.2 µM with IGROV1 ovarian. The GI50 in the assay on HOP-62 NSCLC was greater than 100 µM; in the assay with HL-60(TB) leukemia, 41.6 µM; in the assay on HCT-15 colon, 35.5 µM; in the assay on CAKI-1 renal, 77.6 µM. Moreover, the TGI with HT29 colon, in the assay with SK-OV-3 ovarian, in the assay on TK-10 renal, with SF-539 CNS, with SK-MEL-28 melanoma and with IGROV1 ovarian was greater than 100 µM throughout. Besides, the TGI in the assay with HOP-62 NSCLC, in the assay with HL-60(TB) leukemia, in the assay on HCT-15 colon and in the assay with CAKI-1 renal was greater than 100 µM each time.
For the compound `Cc1cccc(Cc2cnc(NC(=O)CCCOc3ccc(Cl)cc3)s2)c1`, the GI50 in the assay with HT29 colon was 3.49 µM; with SK-OV-3 ovarian, greater than 100 µM; with TK-10 renal, greater than 100 µM; with SF-539 CNS it was 5.13 µM; in the assay with SK-MEL-28 melanoma, 37.2 µM; in the assay with IGROV1 ovarian, 9.21 µM. For the same compound, the GI50 in the assay with HOP-62 NSCLC is 5.57 µM; in the assay with HL-60(TB) leukemia, 2.24 µM; with HCT-15 colon it was 3.56 µM; in the assay on CAKI-1 renal it was 3.68 µM. Also, the TGI with HT29 colon, with SK-OV-3 ovarian, with TK-10 renal, with SF-539 CNS, in the assay with SK-MEL-28 melanoma and in the assay with IGROV1 ovarian was greater than 100 µM in each case. Besides, the TGI in the assay with HOP-62 NSCLC was greater than 100 µM; in the assay on HL-60(TB) leukemia it was 5.1 µM; in the assay with HCT-15 colon, greater than 100 µM; in the assay with CAKI-1 renal, greater than 100 µM.
As to `CCOC(=O)C1C(=O)C(=O)N2CCc3c([nH]c4ccccc34)C12` (configuration not stated), the TGI with HT29 colon, in the assay with SK-OV-3 ovarian, with TK-10 renal, with SF-539 CNS, in the assay on SK-MEL-28 melanoma and in the assay on IGROV1 ovarian was greater than 100 µM in each case. Moreover, the TGI in the assay with HOP-62 NSCLC, in the assay on HL-60(TB) leukemia, with HCT-15 colon and in the assay on CAKI-1 renal was greater than 100 µM throughout.
